In patent publication US20190367558A1, “ANTIBODY/DRUG CONJUGATES AND METHODS OF USE” (ESPERANCE PHARMACEUTICALS, INC., priority 2012, published 2019):

Columns and labels:
Assay type in all cases: cell-based, human
[1] = system: Daudi (CD20 positive Non-Hodgkin's lymphoma cells); assay: Membrane integrity, Cytotox Glo luminometric assay (Examples 12, 16, 19, 20, 22); conditions: 4 h, CHO expressed IgG2 ADCs, Example 22
Protocol: (§1) Naked antibody anti-CD20-IgG1-Phor18 were chemically conjugated (MS4A and AT80), Mw app.158,000 g/mol at a concentrations of 0.34 mg/ml (MS4A-Phor18) and 0.76 mg/ml (AT-80-Phor18). Cell lines were obtained at the American Type Cell Collection (Mannassas, Va.). Human Non-Hodgkin's lymphoma cells Daudi (CD20 positive, passage number p2), Raji (CD20 positive p 2) and human leukemia cell line U937 (CD20 negative, p 10) were seeded at a density of 3,000 cells per well in opaque plates in heat inactivated full medium. After 24 hours cells were replenished with fresh media (75 μl) and incubated with 25 μl of a 4× serial dilution of MS4A1-Phor18 and AT80-Phor18 of 0.001, 0.01, 0.1, 1, 10, 100 and 500 nM (N=6). Cells incubated for 2-5 hours were assayed for membrane integrity using a luminometric assay kit (Promega, Madison, Wis., Cytotox Glo G9292 lot #301329). Cell viability was determined was determined after 24, and 48 hours using a luminescent assay kit (Promega, Madison, Wis., Cell Titer Glo, G 7572, lot 30068102).
(§2) The concentration of each naked antibody fragment and ADC was determined according to Bradford. Naked antibody scFv Mw 27,088 g/mol at a concentration of 0.3 mg/ml, minibody Mw 78,988 g/mol, 0.231 mg/ml; Phor 18 conjugated antibodies were scFv-Phor18 (Mw 29,349 g/mol, 0.9 mg/ml) and minibody-Phor18 (Mw 93,515, 0.48 mg/ml). Cell lines were obtained at the American Type Cell Collection (Mannassas, Va.). Human Non-Hodgkin's lymphoma cells Daudi (CD20 positive, passage number p8) and human leukemia cell line U937 (CD20 negative, p 16) were seeded at a density of 2,000 cells per well in opaque plates in heat inactivated full medium. After 24 hours cells were replenished with fresh media (75 μl) and incubated with 25 μl of a 4× serial dilution of scFv-Phor18 and minibody-Phor18 ADC and naked antibody fragment (scFv and minibody) prepared in cell culture media were added at concentrations of 0.0001, 0.001, 0.01, 0.1, 1, 10, 100, 200, and 500 nM (N=6). Cells incubated for 4 hours were assayed for membrane integrity using a luminometric assay kit (Promega, Madison, Wis., Cytotox Glo G9292 lot #301329). Cell viability was determined was determined after 24, 48 and 72 hours using a luminescent assay kit (Promega, Madison, Wis., Cell Titer Glo, G 7572, lot 30062102).
(§3) Controls for 100% cell viability (culture media) and 100% cell death (0.1% Triton X 100) incubated under the same conditions.
(§4) Data were processed and analyzed to obtain IC50 values using Graph Pad Prizm version 5.00 for Windows, GraphPad Software, San Diego Calif. USA, www-graphpad-com (Graph Pad Prizm, Inc). Statistical analysis for significance was determined by a two-tailed Student's T-test. Each test was conducted using 2 plates with 2-3 wells each to achieve an N of 4-6 data points per time point.
(§5) The concentration of each naked antibody fragment and ADC was determined spectrophotometrically (OD280). Naked antibody scFv-Fc Mw 52,562 g/mol at a concentration of 1.1 mg/ml, Phor 18 conjugated antibodies were Phor18-VL-scFvFc (Mw 54,685 g/mol, 1.0 mg/ml), scFv-Fc-CH3-Phor18 (Mw 54,685 g/mol, 0.8 mg/ml). Human Non-Hodgkin's lymphoma cells Daudi (CD20 positive, passage number p7) and human leukemia cell line U937 (CD20 negative, p 6) were seeded at a density of 2,000 cells per well in opaque plates in heat inactivated full medium using cell dissociation buffer. After 24 hours cells were replenished with fresh media (75 μl) and incubated and incubated with 25 μl of a 4× serial dilution of each ADC and naked antibody prepared in cell culture media were added at concentrations of 0.01, 0.1, 1, 10, 100, 200 and 500 nM for scFvFc, Phor18-VL-scFvFc and scFv-Fc-CH3-Phor18.
(§6) Cells incubated for 4 hours were assayed for membrane integrity using a luminometric assay kit (Promega, Madison, Wis., Cytotox Glo G9292 lot #26229601). Cell viability was determined was determined after 24 hours using a luminescent assay kit (Promega, Madison, Wis., Cell Titer Glo, G 7572, lot 30731602). […]

[2] = system: Daudi (CD20 positive Non-Hodgkin's lymphoma cells); assay: Cell viability, Cell Titer Glo luminescent assay (Examples 12, 16, 19, 20, 22); conditions: CHO expressed IgG2 ADCs, Example 22
Protocol: as §1, §2, §3, §4, §5, §6

[3] = system: U937 (CD20 negative leukemia cell line); assay: Membrane integrity, Cytotox Glo luminometric assay (Examples 19, 20, 22); conditions: CHO expressed IgG2 ADCs, Example 22
Protocol: The concentration of each naked antibody fragment and ADC was determined spectrophotometrically (OD280). Naked antibody scFv-Fc Mw 52,562 g/mol at a concentration of 1.1 mg/ml, Phor 18 conjugated antibodies were Phor18-VL-scFvFc (Mw 54,685 g/mol, 1.0 mg/ml), scFv-Fc-CH3-Phor18 (Mw 54,685 g/mol, 0.8 mg/ml). Human Non-Hodgkin's lymphoma cells Daudi (CD20 positive, passage number p7) and human leukemia cell line U937 (CD20 negative, p 6) were seeded at a density of 2,000 cells per well in opaque plates in heat inactivated full medium using cell dissociation buffer. […]
as §6
Cells incubated for 4 hours were assayed for membrane integrity using a luminometric assay kit (Promega, Madison, Wis., Cytotox Glo G9292 lot #26229601). Cell viability was determined was determined after 24, and 48 hours using a luminescent assay kit (Promega, Madison, Wis., Cell Titer Glo, G 7572, lot 31386501). […]

[4] = system: U937 (CD20 negative leukemia cell line); assay: Cell viability, Cell Titer Glo luminescent assay (Examples 12, 16, 19, 20, 22); conditions: CHO expressed IgG2 ADCs, Example 22
Protocol: as §1, §2, §5
Cells incubated for 4 hours were assayed for membrane integrity using a luminometric assay kit (Promega, Madison, Wis., Cytotox Glo G9292 lot #26229601). Cell viability was determined was determined after 24 hours using a luminescent assay kit (Promega, Madison, Wis., Cell Titer Glo, G 7572, lot 30731602). Controls for 100% cell viability (culture media) and 100% cell death (0.1% Triton X 100) incubated under the same conditions.
Human Non-Hodgkin's lymphoma cells Daudi (CD20 positive, passage number p3) and human leukemia cell line U937 (CD20 negative, p 12) were seeded at a density of 2,000 cells per well in opaque plates in heat inactivated full medium using cell dissociation buffer. […]

IgG2: naked anti-CD20 IgG2 with Rituxan CDRs, CHO cells [reference compound]
Not toxic: IC50, Daudi 4 h (Membrane integrity) [1] | IC50, Daudi 24 h ([2]; 24 h) | IC50, Daudi 48 h ([2]; 48 h) | IC50, U937 4 h (Membrane integrity) [3] | IC50, U937 24 h ([4]; U937, 24 h) | IC50, U937 48 h ([4]; U937, 48 h)
